Experimental data taken from the NIST ThermoML archive (doi:10.1016/j.jct.2013.01.013).

Experiments:
[1] = 101 kPa, Liquid; for viscosity: Capillary tube (Ostwald / Ubbelohde) method; for speed of sound: Linear variable-path acoustic interferometer; for mass density: Pycnometric method
[2] = xn = mol fraction of the nth substance listed; conditions: 101 kPa, Liquid, x2 = 0; for viscosity: Capillary tube (Ostwald / Ubbelohde) method; for speed of sound: Linear variable-path acoustic interferometer; for mass density: Pycnometric method

CC(=O)N(C)C [N,N-dimethylethanamide]
[1]
Conditions	mass density [kg/m3]	speed of sound [m/s]	viscosity [mPa·s]
288.15 K	945.5	1500.2	1.15
293.15 K	941	1482.6	1.038
298.15 K	936.5	1462.1	0.9443
303.15 K	932	1441.8	0.8792
308.15 K	927.5	1420.7	0.8179
313.15 K	923	1402.6	0.7696
318.15 K	918.5	1383.5	0.7346

CN(C)C=O [dimethylformamide] + C=C(C)C(=O)OC
[2]
Conditions	mass density [kg/m3]	speed of sound [m/s]	viscosity [mPa·s]
288.15 K	953.61	1503.3	0.9452
293.15 K	949.1	1485.8	0.8685
298.15 K	944.6	1469.5	0.8123
303.15 K	940.1	1448.8	0.7647
308.15 K	935.6	1429.1	0.7189
313.15 K	931.1	1411.5	0.6851
318.15 K	926.6	1392.6	0.6642

CC(=O)N(C)C [N,N-dimethylethanamide] + C=C(C)C(=O)OC
[2]
Conditions	mass density [kg/m3]	speed of sound [m/s]	viscosity [mPa·s]
288.15 K	945.5	1500.2	1.15
293.15 K	941	1482.6	1.038
298.15 K	936.5	1462.1	0.9443
303.15 K	932	1441.8	0.8792
308.15 K	927.5	1420.7	0.8179
313.15 K	923	1402.6	0.7696
318.15 K	918.5	1383.5	0.7346
